Test results as given in publication PMC7377239, “Cardiovascular Effects of Polychlorinated Biphenyls and Their Major Metabolites” (Environmental Health Perspectives, 2020).
Where two headings read alike, the source gives them in different places.

System: iCell cardiomyocytes (human iPSC-derived cardiomyocytes)
Experiment: Intracellular Ca2+ flux / beating parameters in iCell cardiomyocytes (FLIPR tetra), 90 min or 24 h
Type: cell-based
Conditions: for activity at 0.01 µM / activity at 0.1 µM / activity at 1 µM / activity at 10 µM / activity at 100 µM: Homo sapiens, Cardiomyocyte, 0.00 µM = 100.00; for activity at 0.1 µM: 0.10 µM
Procedure, shortened: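 Gelatin-plated iCell cardiomyocytes (5,000/well) were dye-loaded for 2 h at 37 °C, then exposed for 90 min or 24 h to PCBs/metabolites (5× plates at 0.05–500 µM; 0.5% DMSO final) in triplicate. Ca2+ flux was read for 100 s at 8 Hz and 37 °C. Peak height, frequency, spacing CV and decay/rise ratio were vehicle-normalized and fitted with a four-parameter logistic model, with POD set at 1 SD of vehicle.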

[1] = 1.5 h, read-out: cm.amp.avg.90min
[2] = 1.5 h, read-out: cm.amp.cv.90min
[3] = 1.5 h, read-out: cm.decay.rise.90min
[4] = 1.5 h, read-out: cm.spacing.cv.90min
[5] = 24 h, read-out: cm.amp.avg.24hrs
[6] = 24 h, read-out: cm.amp.cv.24hrs
[7] = 24 h, read-out: cm.decay.rise.24hrs
[8] = 24 h, read-out: cm.spacing.cv.24hrs

SMILES: Oc1ccc(-c2ccc(Cl)cc2)cc1 [4'-OH PCB3]
- activity at 0.01 µM [1]: 95.4%
- activity at 0.01 µM [2]: 111%
- activity at 0.01 µM (1.5 h, read-out: cm.bpm.90min): 97.8%
- activity at 0.01 µM [3]: 97.5%
- activity at 0.01 µM [4]: 120%
- activity at 0.1 µM [1]: 101%
- activity at 0.1 µM [2]: 107%
- activity at 0.1 µM (1.5 h, read-out: cm.bpm.90min): 100%
- activity at 0.1 µM [3]: 97.1%
- activity at 0.1 µM [4]: 108%
- activity at 1 µM [1]: 105%
- activity at 1 µM [2]: 100%
- activity at 1 µM (1.5 h, read-out: cm.bpm.90min): 104%
- activity at 1 µM [3]: 95.9%
- activity at 1 µM [4]: 106%
- activity at 10 µM [1]: 97.2%
- activity at 10 µM [2]: 100%
- activity at 10 µM (1.5 h, read-out: cm.bpm.90min): 118%
- activity at 10 µM [3]: 89.6%
- activity at 10 µM [4]: 116%
- activity at 100 µM [1]: 0%
- activity at 100 µM [2]: 0%
- activity at 100 µM (1.5 h, read-out: cm.bpm.90min): 0%
- activity at 100 µM [3]: 0%
- activity at 100 µM [4]: 0%
- activity at 0.01 µM [5]: 91%
- activity at 0.01 µM [6]: 37.2%
- activity at 0.01 µM (24 h, read-out: cm.bpm.24hrs): 53.5%
- activity at 0.01 µM [7]: 43%
- activity at 0.01 µM [8]: 53.2%
- activity at 0.1 µM [5]: 31.1%
- activity at 0.1 µM [6]: 82.3%
- activity at 0.1 µM (24 h, read-out: cm.bpm.24hrs): 54.4%
- activity at 0.1 µM [7]: 43.8%
- activity at 0.1 µM [8]: 53.7%
- activity at 1 µM [5]: 32%
- activity at 1 µM [6]: 67.1%
- activity at 1 µM (24 h, read-out: cm.bpm.24hrs): 49.6%
- activity at 1 µM [7]: 51%
- activity at 1 µM [8]: 47.2%
- activity at 10 µM [5]: 54.4%
- activity at 10 µM [6]: 55%
- activity at 10 µM (24 h, read-out: cm.bpm.24hrs): 48.7%
- activity at 10 µM [7]: 58.5%
- activity at 10 µM [8]: 51.4%
- activity at 100 µM [5]: 0%
- activity at 100 µM [6]: 0%
- activity at 100 µM (24 h, read-out: cm.bpm.24hrs): 0%
- activity at 100 µM [7]: 0%
- activity at 100 µM [8]: 0%

SMILES: Oc1cc(Cl)cc(-c2cccc(Cl)c2)c1 [5-OH-PCB 11]
- effect on Ca2+ flux (iPSC-CM, 100 μM, because of loss of cell viability): complete block of Ca^2+ flux
